Assay results published in US10117912B2 (priority 2013, dated 2018).
Converted amounts (≈) assume the structure as drawn. Read-outs that look alike come from different tables or passages of the source.

Assays:
[1] = system: alkaline phosphatase from bovine intestinal mucosa; format: biochemical
[2] = system: MDCKII-wt monolayer
[3] = Equilibrium solubility of phenytoin in assay buffer; format: physicochemical
Method: 10 mg of phenytoin was added to a 20 mL scintillation vial containing 2 mL assay buffer, pH 7.4 (122 mM NaCl, 25 mM NaHCO3, 10 mM glucose, 10 mM HEPES, 3 mM KCl, 1.2 mM MgSO4, 1.4 mM CaCl2, and 0.4 mM K2HPO4). The vials were placed in a shaker incubator at different temperatures (28, 32 and 37° C.). After 48 h, drug suspension from vial was centrifuged at 13000 g for 20 min. Using a 0.2 μm syringe filter, the supernatant was filtered into a fresh glass vial and analyzed using HPLC. The experiments were performed in triplicate.

[4] = prodrug S=6.1 with 0.6 IU/mL enzyme, 3 h

Compound: O=C1NC(c2ccccc2)(c2ccccc2)C(=O)N1COP(=O)(O)O [fosphenytoin, Fosphenytoin disodium]
- kcat [1]: 2880 s⁻¹
- extent of conversion of prodrug to drug ([1]; fosphenytoin 586 μM, various enzyme concentrations): Complete conversion
- Vmax (Michaelis-Menten) ([1]; pH 7.4): 51.1 ± 1.8 µM/min
- Km ([1]; pH 7.4, read-out: KM (Michaelis-Menten)): 828 ± 81.6 µM
- membrane integrity (TEER) ([2]; 3 h treatment, pH 7.4, 32° C., enzyme alone or prodrug alone at S=0.8 or S=6.1): not compromised
- TEER value [2, 4]: > 60 ohms/cm^2
- membrane integrity (TEER), prodrug with enzyme [2, 4]: minor compromise of intercellular tight junctions

Compound: O=C1NC(=O)C(c2ccccc2)(c2ccccc2)N1 [phenytoin]
- effect of temperature on solubility ([3]; 28° C. and 37° C., pH 7.4): unaffected
- solubility at 48 h ([3]; aqueous buffer, thermodynamic from solid, pH 7.4 and 32° C., assay buffer, 48 h): 126 ± 5.6 µM (≈ 31.9 µg/mL)

Compound: alkaline phosphatase
- membrane integrity (TEER) ([2]; pH 7.4): not compromised
